From PMC10782561 (Chemico-biological interactions, 2023)
Where two headings read alike, the source gives them in different places.

What was measured:
[1] = format: in vivo, human
[2] = biological target: human CYP1A2 (Homo sapiens, UniProt P05177); experiment: Phe inhibition of human CYP1A2, P450-Glo assay; format: biochemical
[3] = system: Salmonella strains TA100, TA 97a, TA98 and TA102; conditions: cited from earlier work
[4] = [14C]-BaP metabolite in human plasma, 0-48 h, BaP + Phe dose, mean ± SD
[5] = [14C]-BaP metabolite in human plasma, 0-48 h, BaP only dose, mean ± SD
[6] = [14C]-BaP metabolite in human plasma, BaP + Phe dose, mean ± SD
[7] = [14C]-BaP metabolite in human plasma, BaP only dose, mean ± SD

Chain of human CYP1A2 (P05177 whole entry): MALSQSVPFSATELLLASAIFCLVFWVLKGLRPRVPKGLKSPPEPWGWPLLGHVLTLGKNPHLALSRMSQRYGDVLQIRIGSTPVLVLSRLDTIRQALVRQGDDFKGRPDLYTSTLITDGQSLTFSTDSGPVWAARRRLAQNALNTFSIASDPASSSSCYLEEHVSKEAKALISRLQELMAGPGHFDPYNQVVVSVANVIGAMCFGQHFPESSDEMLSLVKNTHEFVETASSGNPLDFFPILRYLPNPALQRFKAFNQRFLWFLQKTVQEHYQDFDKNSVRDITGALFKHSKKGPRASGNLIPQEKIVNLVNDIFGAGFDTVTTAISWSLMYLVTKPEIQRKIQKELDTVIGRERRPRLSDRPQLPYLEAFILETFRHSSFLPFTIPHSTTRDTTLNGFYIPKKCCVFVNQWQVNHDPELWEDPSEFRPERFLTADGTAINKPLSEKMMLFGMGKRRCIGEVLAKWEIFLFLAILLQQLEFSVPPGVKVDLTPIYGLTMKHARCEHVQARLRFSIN

Structure (SMILES): O[C@H]1C=Cc2c(cc3ccc4cccc5ccc2c3c45)[C@@H]1O (racemic) [7,8-dihydrodiol, (±) trans-benzo[a]pyrene-7,8-dihydrodiol]
- AUC [1, 4]: 10.53 ± 9.26 fg BaP/mL×h
- AUC [1, 5]: 28.04 ± 34.04 fg BaP/mL×h
- AUC(0,∞) [1, 6]: 10.53 ± 9.26 fg BaP/mL×h
- Cmax [1, 6]: 2.54 ± 2.07 fg BaP/mL
- T1/2 [1, 6]: 2.25 ± 0.55 h
- Tmax [1, 6]: 2.3 ± 1.2 h
- AUC(0,∞) [1, 7]: 28.04 ± 34.04 fg BaP/mL×h
- Cmax [1, 7]: 4.12 ± 3.04 fg BaP/mL
- T1/2 [1, 7]: 4.72 ± 4.18 h
- Tmax [1, 7]: 1.7 ± 0.8 h

Structure (SMILES): Oc1ccc2ccc3c4ccccc4cc4ccc1c2c43 [3-OH]
- AUC [1, 4]: 5.90 ± 4.33 fg BaP/mL×h
- AUC [1, 5]: 9.99 ± 7.43 fg BaP/mL×h
- AUC(0,∞) [1, 6]: 5.90 ± 4.33 fg BaP/mL×h
- Cmax [1, 6]: 2.00 ± 1.03 fg BaP/mL
- T1/2 [1, 6]: 1.59 ± 0.36 h
- Tmax [1, 6]: 2.2 ± 0.8 h
- AUC(0,∞) [1, 7]: 9.99 ± 7.43 fg BaP/mL×h
- Cmax [1, 7]: 4.85 ± 3.31 fg BaP/mL
- T1/2 [1, 7]: 1.85 ± 0.56 h
- Tmax [1, 7]: 1.7 ± 0.8 h

Structure (SMILES): Oc1ccc2cc3ccc4cccc5ccc(c2c1)c3c45 [9-OH]
- AUC [1, 4]: 0.74 ± 0.82 fg BaP/mL×h
- AUC [1, 5]: 3.40 ± 3.83 fg BaP/mL×h
- AUC(0,∞) [1, 6]: 0.74 ± 0.82 fg BaP/mL×h
- Cmax [1, 6]: 0.66 ± 0.38 fg BaP/mL
- T1/2 [1, 6]: 1.40 ± 0.49 h
- Tmax [1, 6]: 2.0 ± 0.7 h
- AUC(0,∞) [1, 7]: 3.40 ± 3.83 fg BaP/mL×h
- Cmax [1, 7]: 2.32 ± 2.36 fg BaP/mL
- T1/2 [1, 7]: 1.33 ± 0.39 h
- Tmax [1, 7]: 1.4 ± 0.7 h

Structure (SMILES): c1ccc2c(c1)ccc1ccccc12 [Phe, phenanthrene]
- Ki [2]: 12.6 µM
- type of inhibition of hCYP1A2 ([2]; Lineweaver-Burk plot): competitive

Structure (SMILES): Cc1cccc2c1ccc1cc(C(C)C)ccc12 [Retene, 7-isopropyl-1-methylphenanthrene]
- mutagenicity [3]: negative

Structure (SMILES): c1ccc2c(c1)cc1ccc3cccc4ccc2c1c34 [[^14C]-BaP, benzo[a]pyrene]
- Cl ([1]; both, human, in vivo): 3707 ± 2267 L/h
- Vd ([1]; both, human, in vivo): 17550 ± 9725 L
- half-life ([1]; both, human, in vivo, T1/2): 4.78 ± 4.45 h
- Tmax ([1]; both, human, in vivo, Tmax): 1.1 ± 1.1 h
- half-life ([1]; both, human, in vivo, po, T1/2 in blood): 1.1 ± 1.1 h
- AUC ([1]; human, in vivo): 17.88 ± 9.56 fg BaP/mL×h
- AUC(0,∞) ([1]; human, in vivo): 17.88 ± 9.56 fg BaP/mL×h
